# Like-named read-outs stand apart in the source and are kept apart here.
# How the values were obtained:
# [1] = tested on: Actinomyces viscosus; test: MIC of natural flavoring agents vs. A. viscosus, standard serial dilution method; type: cell-based; conditions: for MIC: Actinomyces viscosus, read-out: Antibacterial Activity vs. A. viscosus MIC; for antibacterial activity against A. viscosus (in words): from MIC data of Table 1
# Protocol: The antibacterial activities of a number of natural flavoring agents were evaluated against Actinomyces viscosus, a dental plaque bacterium, by measuring the minimum inhibitory concentration (hereinafter referred to as MIC) of the respective agents in vitro according to the standard serial dilution method delineated in N. Nabi et al., Am. J. Dent. 2: 197:206, 1989 which is incorporated herein by reference. The MIC is defined for the purpose of this invention to mean the concentration of a particular agent at which no bacterial growth was observed. The natural flavoring agents used were obtained from commercial sources available in organic or aqueous solvents. The antibacterial compound, Triclosan, was used as a positive Control. Triclosan is 2,4,4'-trichloro-2'-hydroxydiphenyl ether.
# [2] = tested on: bacterial plaque formation; test: Chemostat Plaque Model in vitro (flow cell system, artificial mouth); type: cell-based; conditions: about 0.5 wt % eucalyptol or about 0.01 wt. % sage oil added to rinse (2)
# Protocol: The effect of natural product rinse (2) to inhibit bacterial plaque formation in vitro was assessed using the Chemostat Plaque Model according to methods of A. Gaffar et al. described in Am. J. Dent., 3, p. S7-S14, 1990. This in vitro model simulates the actual saliva and tooth surface interactions with respect to the plaque formation in the mouth and assesses the interactions, at biophysical and surface chemical level, of saliva-coated bacteria to saliva-coated surfaces with a surface energy similar to dental enamel.
# [3] = tested on: Plaque; test: 4-day plaque regrowth in a clinical study in humans, plaque score; type: in vivo
# Protocol: (§1) The efficacy of natural product rinse on the reduction of plaque was evaluated in a clinical study in humans. The study was randomized, blind, 3 cells cross-over design to measure the effects of each rinse on 4 day plaque growth from a zero baseline. […] On the other hand, 0.2% chlorhexidine rinse, clinically proven for plaque and gingivitis effect, inhibited 48.0% and 78.0% regrowth of plaque measured by score and area, respectively under similar conditions.
# [4] = tested on: Plaque; test: 4-day plaque regrowth in a clinical study in humans, plaque area; type: in vivo
# Protocol: as §1
# [5] = tested on: plaque and gingivitis; conditions: toothpaste and mouthrinse containing Triclosan, humans; cited from earlier work
# [6] = in vitro, serial dilution, concentration at which no bacterial growth was observed
# [7] = 4-day plaque regrowth, rinsed twice daily, fifteen volunteers
# [8] = after 4 days, compared with 0.9% saline rinse, p < 0.001
compound,measurement,setting,value
Cc1ccc(C(C)C)c(O)c1 [Thymol],MIC,[1]; [6],25 µg/mL
same,antibacterial activity against A. viscosus (in words),[1],most active
CC(C)=CCCC(C)=CCCC(C)=CCO [Farnesol],MIC,[1]; [6],25 µg/mL
same,antibacterial activity against A. viscosus (in words),[1],excellent antibacterial activity equivalent to thymol or eugenol
same,antibacterial activity against A. viscosus (in words),[1]; listed as farnesol,most active
C=CCc1ccc(O)c(OC)c1 [Eugenol],MIC,[1]; [6],25 µg/mL
same,antibacterial activity against A. viscosus (in words),[1],most active
CC12CCC(CC1)C(C)(C)O2 [eucalyptol],antiplaque activity on addition to natural product rinse (2) (in words),[2],increases the antiplaque activity
[H]/N=C(\N/C(=N/[H])NCCCCCCNC(=N)NC(=N)Nc1ccc(Cl)cc1)Nc1ccc(Cl)cc1 [Chlorhexidine],Plaque Score,[3]; [7],0.128 +/- 0.068
same,Plaque Reduction % (plaque score),[3]; [8],48.0%
same,Plaque Area,[4]; [7],0.069 +/- 0.055
same,Plaque Reduction % (plaque area),[4]; [8],78.0%
"Oc1cc(Cl)ccc1Oc1ccc(Cl)cc1Cl [Triclosan, 2,4,4'-trichloro-2'-hydroxydiphenyl ether, reference compound]",MIC,[1],5 µg/mL
same,effect on plaque and gingivitis (in words),[5],reduce plaque and gingivitis
